# Values joined by “and” are separate entries in the source; they are usually repeats but may differ in a detail not shown here. Equal values may be shown once.
# Assays:
# [1] = In vitro inhibitory activity against sorbitol dehydrogenase (SD) from sheep liver; Not active
# Glutathione reductase [2] = target: T1, Glutathione reductase (Saccharomyces cerevisiae S288c, UniProt P41921); assay: In vitro inhibitory activity against glutathione reductase (GR) from bakers yeast; Not active
# T1 sequence (P41921 whole entry): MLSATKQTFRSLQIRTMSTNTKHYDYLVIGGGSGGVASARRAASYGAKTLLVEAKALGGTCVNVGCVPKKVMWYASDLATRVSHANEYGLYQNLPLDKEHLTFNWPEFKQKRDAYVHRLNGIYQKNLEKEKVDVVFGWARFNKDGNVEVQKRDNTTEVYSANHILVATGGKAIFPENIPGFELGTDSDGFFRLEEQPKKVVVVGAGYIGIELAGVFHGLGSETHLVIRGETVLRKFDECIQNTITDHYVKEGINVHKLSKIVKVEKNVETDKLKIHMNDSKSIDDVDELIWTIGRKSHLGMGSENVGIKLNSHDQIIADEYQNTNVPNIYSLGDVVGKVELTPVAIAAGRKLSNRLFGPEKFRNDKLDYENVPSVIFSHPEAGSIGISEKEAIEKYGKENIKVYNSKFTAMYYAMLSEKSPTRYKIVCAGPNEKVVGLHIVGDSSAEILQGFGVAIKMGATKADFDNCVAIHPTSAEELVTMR
# [3] = target: T2, Aldo-keto reductase family 1 member A1 (Rattus norvegicus, UniProt P51635); assay: In vitro inhibitory activity against aldehyde reductase 1 (ALR1) from rat kidney.
# T2 sequence (P51635 whole entry): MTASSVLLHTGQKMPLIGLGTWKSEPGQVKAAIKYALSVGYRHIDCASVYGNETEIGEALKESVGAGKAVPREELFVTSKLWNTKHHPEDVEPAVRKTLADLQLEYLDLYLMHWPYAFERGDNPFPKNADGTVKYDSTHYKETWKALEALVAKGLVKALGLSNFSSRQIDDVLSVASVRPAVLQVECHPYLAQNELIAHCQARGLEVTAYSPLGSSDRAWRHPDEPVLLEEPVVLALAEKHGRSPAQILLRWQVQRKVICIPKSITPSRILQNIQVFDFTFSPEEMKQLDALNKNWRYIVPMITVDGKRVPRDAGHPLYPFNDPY
# [4] = target: Aldo-keto reductase family 1 member B1 (Rattus norvegicus, UniProt P07943); assay: In vitro inhibitory activity against aldose reductase (ALR2) from rat lens extraction.
# Rattus norvegicus [5] = species on record: Rattus norvegicus; assay: Ability to prevent cataract development in severly galactosemic rat treated with 3 percent ophthalmic solution on day 18; type: functional
# Rattus norvegicus [6] = species on record: Rattus norvegicus; assay: Ability to prevent cataract development in severly galactosemic rat treated with 3 percent ophthalmic solution on day 21; type: functional
# Rattus norvegicus [7] = species on record: Rattus norvegicus; assay: Ability to prevent cataract development in severly galactosemic rat treated with 3 percent ophthalmic solution on day 16; type: functional
# Rattus norvegicus [8] = species on record: Rattus norvegicus; assay: Ability to prevent cataract development in severly galactosemic rat treated with 3 percent ophthalmic solution on day 12; type: functional
# Rattus norvegicus [9] = species on record: Rattus norvegicus; assay: Ability to prevent cataract development in severly galactosemic rat treated with 3 percent ophthalmic solution on day 11; type: functional
# Rattus norvegicus [10] = species on record: Rattus norvegicus; assay: Ability to prevent cataract development in severly galactosemic rat treated with 3 percent ophthalmic solution on day 13; type: functional
# Rattus norvegicus [11] = species on record: Rattus norvegicus; assay: Ability to prevent cataract development in severly galactosemic rat treated with 3 percent ophthalmic solution on day 14; type: functional
# Rattus norvegicus [12] = species on record: Rattus norvegicus; assay: Ability to prevent cataract development in severly galactosemic rat treated with 3 percent ophthalmic solution on day 15; type: functional
# Rattus norvegicus [13] = species on record: Rattus norvegicus; assay: Ability to prevent cataract development in severly galactosemic rat treated with 3 percent ophthalmic solution on day 17; type: functional
# Rattus norvegicus [14] = species on record: Rattus norvegicus; assay: Ability to prevent cataract development in severly galactosemic rat treated with 3 percent ophthalmic solution on day 20; type: functional
# Rattus norvegicus [15] = species on record: Rattus norvegicus; assay: Ability to prevent cataract development in severly galactosemic rat treated with 3 percent ophthalmic solution on day 19; type: functional
# Glutathione reductase [16] = target: T1, Glutathione reductase; assay: In vitro inhibitory activity against glutathione reductase (GR) from bakers yeast
# Rattus norvegicus [17] = species on record: Rattus norvegicus; assay: Ability to prevent cataract development in severly galactosemic rat treated with 1 percent ophthalmic solution on day 16; type: functional
# Rattus norvegicus [18] = species on record: Rattus norvegicus; assay: Ability to prevent cataract development in severly galactosemic rat treated with 1 percent ophthalmic solution on day 18; type: functional
# Rattus norvegicus [19] = species on record: Rattus norvegicus; assay: Ability to prevent cataract development in severly galactosemic rat treated with 1 percent ophthalmic solution on day 11; type: functional
# Rattus norvegicus [20] = species on record: Rattus norvegicus; assay: Ability to prevent cataract development in severly galactosemic rat treated with 1 percent ophthalmic solution on day 13; type: functional
# Rattus norvegicus [21] = species on record: Rattus norvegicus; assay: Ability to prevent cataract development in severly galactosemic rat treated with 1 percent ophthalmic solution on day 12; type: functional
# Rattus norvegicus [22] = species on record: Rattus norvegicus; assay: Ability to prevent cataract development in severly galactosemic rat treated with 1 percent ophthalmic solution on day 20; type: functional
# Rattus norvegicus [23] = species on record: Rattus norvegicus; assay: Ability to prevent cataract development in severly galactosemic rat treated with 1 percent ophthalmic solution on day 14; type: functional
# Rattus norvegicus [24] = species on record: Rattus norvegicus; assay: Ability to prevent cataract development in severly galactosemic rat treated with 1 percent ophthalmic solution on day 15; type: functional
# Rattus norvegicus [25] = species on record: Rattus norvegicus; assay: Ability to prevent cataract development in severly galactosemic rat treated with 1 percent ophthalmic solution on day 21; type: functional
# Rattus norvegicus [26] = species on record: Rattus norvegicus; assay: Ability to prevent cataract development in severly galactosemic rat treated with 1 percent ophthalmic solution on day 19; type: functional
# Rattus norvegicus [27] = species on record: Rattus norvegicus; assay: Ability to prevent cataract development in severly galactosemic rat treated with 1 percent ophthalmic solution on day 17; type: functional
structure (smiles),measurement,setting,value
Cc1ccc(CN2C(=O)C(C(C#N)C(=O)O)c3ccccc32)cc1 (centres undefined),IC50,[1],Not Active
same,IC50,Glutathione reductase [2],Not Active
same,IC50,[3],3570 nM
same,IC50,[4],640 nM and 460 nM
COc1ccc(CN2C(=O)C(C(C#N)C(=O)O)c3cc(F)ccc32)cc1 (centres undefined),IC50,[4],110 nM
N#CC(C(=O)O)C1C(=O)Nc2ccc(F)cc21 (centres undefined),IC50,[1],Not Active
same,IC50,Glutathione reductase [2],Not Active
same,IC50,[3],6790 nM
same,IC50,[4],280 nM
COc1ccc(CN2C(=O)C(C(C#N)C(=O)O)c3ccccc32)cc1 (centres undefined),IC50,[4],630 nM
N#CC(C(=O)O)C1C(=O)Nc2ccc(Br)cc21 (centres undefined),IC50,[4],380 nM
CCCN1C(=O)C(C(C#N)C(=O)O)c2cc(F)ccc21 (centres undefined),IC50,[4],280 nM
N#CC(C(=O)O)C1C(=O)N(CCCl)c2ccc(F)cc21 (centres undefined),IC50,[4],1340 nM
N#CC(C(=O)O)C1C(=O)N(Cc2ccccc2)c2ccc(F)cc21 (centres undefined),IC50,[4],180 nM
N#CC(C(=O)O)C1C(=O)Nc2ccc([N+](=O)[O-])cc21 (centres undefined),IC50,[4],1200 nM
Cc1ccc(CN2C(=O)C(C(C#N)C(=O)O)c3cc(Br)ccc32)cc1 (centres undefined),IC50,[4],250 nM
Cc1ccc(CN2C(=O)C(C(C#N)C(=O)O)c3cc(F)ccc32)cc1 (centres undefined),Nuclear cataract,Rattus norvegicus [5],72%
same,Nuclear cataract,Rattus norvegicus [6],100%
same,Nuclear cataract,Rattus norvegicus [7],57%
same,Nuclear cataract,Rattus norvegicus [8],0%
same,Nuclear cataract,Rattus norvegicus [9],0%
same,IC50,Glutathione reductase [2],Not Active
same,Nuclear cataract,Rattus norvegicus [10],0%
same,Nuclear cataract,Rattus norvegicus [11],18%
same,Nuclear cataract,Rattus norvegicus [12],43%
same,Nuclear cataract,Rattus norvegicus [13],57%
same,IC50,[3],690 nM
same,IC50,[4],75 nM and 42 nM
same,Nuclear cataract,Rattus norvegicus [14],96%
same,Nuclear cataract,Rattus norvegicus [15],84%
N#CC(C(=O)O)C1C(=O)Nc2ccccc21 (centres undefined),IC50,[4],850 nM
Cc1ccc(CN2C(=O)C(C(C#N)C(=O)OC(C)C)c3cc(F)ccc32)cc1 (centres undefined),Nuclear cataract,Rattus norvegicus [5],0%
same,Nuclear cataract,Rattus norvegicus [6],8%
same,Nuclear cataract,Rattus norvegicus [7],0%
same,Nuclear cataract,Rattus norvegicus [8],0%
same,Nuclear cataract,Rattus norvegicus [9],0%
same,Nuclear cataract,Rattus norvegicus [10],0%
same,Nuclear cataract,Rattus norvegicus [11],0%
same,Nuclear cataract,Rattus norvegicus [12],0%
same,Nuclear cataract,Rattus norvegicus [13],0%
same,Nuclear cataract,Rattus norvegicus [14],8%
same,Nuclear cataract,Rattus norvegicus [15],8%
N#CC(C(=O)O)C1C(=O)N(Cc2ccccc2)c2ccccc21 (centres undefined),IC50,[4],3200 nM
N#CC(C(=O)O)C1C(=O)N(Cc2ccc(C(F)(F)F)cc2)c2ccccc21 (centres undefined),IC50,[4],570 nM
N#CC(C(=O)O)C1C(=O)N(Cc2ccc(F)cc2)c2ccc(F)cc21 (centres undefined),IC50,[1],Not Active
same,IC50,Glutathione reductase [2],Not Active
same,IC50,[3],490 nM
same,IC50,[4],130 nM and 58 nM
N#CC(C(=O)O)C1C(=O)N(Cc2ccc(F)cc2)c2ccccc21 (centres undefined),IC50,[4],570 nM
COc1ccc2c(c1)C(C(C#N)C(=O)O)C(=O)N2 (centres undefined),IC50,[4],5400 nM
CN1C(=O)C(C(C#N)C(=O)O)c2cc(F)ccc21 (centres undefined),IC50,[4],390 nM
N#CC(C(=O)O)C1C(=O)N(Cc2ccc(C(F)(F)F)cc2)c2ccc(F)cc21 (centres undefined),IC50,[4],280 nM
O=c1c(O)c(-c2ccc(O)c(O)c2)oc2cc(O)cc(O)c12 [QUERCETIN],IC50,Glutathione reductase [16],48800 nM
O=C1NC(=O)[C@@]2(CCOc3ccc(F)cc32)N1 [SORBINIL],IC50,Glutathione reductase [2],Not Active
COc1ccc2c(C(=S)N(C)CC(=O)O)cccc2c1C(F)(F)F [TOLRESTAT],Nuclear cataract,Rattus norvegicus [5],0%
same,Nuclear cataract,Rattus norvegicus [17],32%
same,Nuclear cataract,Rattus norvegicus [18],43%
same,Nuclear cataract,Rattus norvegicus [19],0%
same,Nuclear cataract,Rattus norvegicus [20],0%
same,Nuclear cataract,Rattus norvegicus [6],0%
same,Nuclear cataract,Rattus norvegicus [7],0%
same,Nuclear cataract,Rattus norvegicus [8],0%
same,Nuclear cataract,Rattus norvegicus [21],0%
same,Nuclear cataract,Rattus norvegicus [22],47%
same,Nuclear cataract,Rattus norvegicus [23],23%
same,Nuclear cataract,Rattus norvegicus [9],0%
same,IC50,Glutathione reductase [2],Not Active
same,Nuclear cataract,Rattus norvegicus [24],32%
same,Nuclear cataract,Rattus norvegicus [25],47%
same,Nuclear cataract,Rattus norvegicus [10],0%
same,Nuclear cataract,Rattus norvegicus [11],0%
same,Nuclear cataract,Rattus norvegicus [12],0%
same,Nuclear cataract,Rattus norvegicus [13],0%
same,IC50,[3],Not Active
same,IC50,[4],46 nM
same,Nuclear cataract,Rattus norvegicus [14],0%
same,Nuclear cataract,Rattus norvegicus [26],43%
same,Nuclear cataract,Rattus norvegicus [15],0%
same,Nuclear cataract,Rattus norvegicus [27],32%

# Reference: ChEMBL document CHEMBL1136757 (J Med Chem, 2003)
